The text below walks through data of paper PMC7554977, “Antimicrobial Peptides with Enhanced Salt Resistance and Antiendotoxin Properties” (International Journal of Molecular Sciences, 2020).

Like-named read-outs stand apart in the source and are kept apart here.

The subject of test [1] is Gram-negative and Gram-positive bacteria. As to conditions: cited from earlier work. The source says:
Problems such as salt sensitivity, cost of synthesis, bioavailability, and stability have limited the therapeutic applications of antimicrobial peptides. Among these problems, salt sensitivity is directly related to the microbicidal mechanism of antimicrobial peptides. […] Similar problems have also been found with other antimicrobial peptides. || Recently, solution structures of S1 (Ac-KKWRKWLAKK-NH2) and S1-Nal-Nal (Ac-KKWRKWLAKKNal-Nal-NH2) in complex with LPS micelles have been reported. Both S1 and S1-Nal-Nal bound to LPS through the hydrophilic surface of their helices to the negatively charged region of LPS. S1-Nal-Nal further inserted deeper into the hydrophobic core of LPS micelles and created better hydrophobic interactions of its C-terminal β-naphthylalanine end-tags with the lipid A motif of LPS. The LPS-induced inflammation might then be prohibited. Moreover, a strategy was developed to increase salt resistance and L ... || To investigate the amphipathic helix–AGP–hydrophobic helix on the antimicrobial and neutralization activities of LPS, two peptides KR12 and RW6 were used for the N-terminal and C-terminal helices. […] Sequences of the designed peptides are listed in Table 1 and their helical wheel analyses ar ...

Test [2] has as its system LPS (interaction between LPS and factor C). The experiment in a line: Limulus amebocyte lysate (LAL) assay, LPS binding and neutralization. It counts as biochemical, Limulus Polyphemus. To be noted: peptide 64 μg/mL; CSE 5 EU; absorbance 405 nm, 37 °C; triplicate. As for the experimental part:
The ability of binding and neutralizing LPS in vitro was measured by the LAL assay which is well-known as the most sensitive and specific method.
The abilities of designed peptides to bind and neutralize LPS were assessed using Limulus amebocyte lysate (LAL) assay (Cape Cod Inc., East Falmouth, MA, USA). LAL is an extract of amebocytes from the Atlantic horseshoe crab Limulus Polyphemus. LAL reacts with lipopolysaccharide (LPS) from bacteria. Different concentrations (5, 4, 2, 1, 0.5 EU) of control standard LPS (CSE) were mixed with LAL reagent water at the same volume of 25 μL to make a standard curve. The samples of 25 μL of different peptide concentrations (128, 64, 32, 16, 8 μg/mL) were mixed with 25 μL CSE (5 EU) in a 96-well plate. A portion of 50 μL of pyrochrome reagent was added to the wells immediately. The absorbance at 405 nm was measured by microplate reader at 37 °C every minute until 25 min.

Test [3] has as its system Acinetobacter sp. (BCRC number 14B0100). It counts as cell-based. As to conditions: MH and LYM media. The source says:
(§1) Escherichia coli strain (ATCC 25922), Staphylococcus aureus sp. strain (ATCC 25923), Pseudomonas aeruginosa Migula strain (ATCC 27853) and Acinetobacter sp. (BCRC number 14B0100) were used to test the antibacterial activity of the peptides. All bacteria were purchased from Food Industry Research and Development Institute (Hsinchu, Taiwan), and Acinetobacter sp. is multiresistant to Ampicillin, Cefazolin, Cefoxitin, Ceftazidime, Ceftriaxone, Ciprofloxacin, Penicillin, Tetracycline and Imipenem. Bacteria were cultured in sterilized MH (Müller−Hinton) broth at 200 rpm and 37 °C for 8 h. After 8 h of culture, the concentrations of the inoculums were determined by measuring absorbance of optical density at 600 nm (OD 600 = 1, equal to approximately 10^8 CFU/mL) with Ultrospec 2100 pro UV−Visible spectrophotometer (Biochrom Ltd., Cambridge, UK)).
(§2) The antibacterial activities were determined by the standard broth microdilution method of the National Committee for Clinical Laboratory Standards with the MH and LYM broth. The LYM broth contains 5.4 mM KCl, 5.6 mM Na2HPO4, 0.5 mM MgSO4, and 1.0 mM sodium citrate. In addition, 0.4 mg of ZnCl2, 2.0 mg of FeCl3·6H2O, 0.1 mg of CuSO4·5H2O, 0.1 mg of MnSO4·H2O, 0.1 mg of Na2B4O7·10H2O, 700 mg of amino acid mixtures without tryptophan (Clontech), and 20 mg of L-tryptophan were added per liter of medium. A vitamin mixture (100X, Sigma) and glucose at final concentration of 2% were also added. We made 1 µL peptide solutions (ranging from 3200 µg/mL to 100 µg/mL in serial dilution) and mixed with 99 µL inoculum (5 × 10^5 CFU/mL) in a polypropylene 96-well plate. We measured the turbidity at OD 600 nm by ELISA plate reader (Thermo Max, Molecular Devices, Sunnyvale, CA, USA). The absorbance of culture medium and inoculum suspension without peptides were used as the negative and positive control, respectively. The MIC value is the lowest concentration of peptide at which there is no obvious growth (equal or more than 90%). […] All peptides were tested in triplicate.

Test [4] deals with Gram-positive and Gram-negative bacteria. The class given is cell-based.
Source text: as §1, §2

For the substance AKRHHGYKRKFH-NH2 [Peptide P-113], the “Efficacy in high salt conditions” value in test [1] (high salt conditions) is “greatly reduced”.

Take “Ac-KRIVQRIKDFLR-NH2 [KR12, reference compound]”: in test [2], the “LPS neutralization, inhibition in LAL assay” value is given as “less than 25%”. For the same substance, the Antimicrobial activities result in test [1] is “possess antimicrobial activities”. In addition, the “Effectiveness against Acinetobacter sp. compared with the other three bacteria strains” value in test [3] is “more effective”.

With “Ac-KRIVQRIKDFLRAGPRRLVRI-NH2 [KR12AGPVR6]”, the MIC in test [4] (8 h) is given as 4~32 μg/mL.

As for “Ac-KRIVQRIKDFLRAGPRRWWRW-NH2 [KR12AGPWR6]”, the MIC in test [4] (8 h) is 2~4 μg/mL.

As to Ac-RRWWRW-NH2 [RW6], the “LPS neutralization, inhibition in LAL assay” value in test [2] is reported as “less than 25%”. Moreover, the MIC in test [4] (8 h) was 8~32 μg/mL; in test [4] (MH broth, inoculum 5 × 10^5 CFU/mL, OD 600 nm, triplicate), “lost its antibacterial activity”. For the same substance, the “MIC (antibacterial activity)” value in test [4] (LYM broth with >100 mM NaCl added, triplicate) is “lost its antibacterial activity”.

Take WRWWRR [WR6]: the Antimicrobial activities entry in test [1] is given as “moderate antimicrobial activities”.
